Laboratory results from ChEMBL document CHEMBL3638030, “IC50 data for the L-type calcium channel extracted from a set of literature articles”.
pIC50: −log10 of the molar value.

Columns and labels:
[1] = biological target: T1, Voltage-dependent L-type calcium channel subunit alpha-1C (Cavia porcellus, UniProt O35505); experiment: Inhibition of Cav1.2 calcium current measured using whole cell patch clamp in guinea pig tracheal smooth muscle cells; format: functional, tissue-based, Trachea; set-up: ca sol conc 5 - Barium mM, temp 35 C
[2] = biological target: T2, Voltage-dependent L-type calcium channel subunit alpha-1C (Rattus norvegicus, UniProt P22002); experiment: Inhibition of Cav1.2 calcium current measured using whole cell patch clamp in rat Artery myocytes; format: functional, cell-based, Tail; set-up: ca sol conc 5 mM, temp 20-22 C
[3] = biological target: T1, Voltage-dependent L-type calcium channel subunit alpha-1C; experiment: Inhibition of Cav1.2 calcium current measured using whole cell patch clamp in guinea pig atrial myocytes; format: functional, cell-based, Heart, Cardiac Muscle Cell; set-up: ca sol conc 1.8 mM, temp 36 pm 1 C
[4] = biological target: T3, Voltage-dependent L-type calcium channel subunit alpha-1C (Mus musculus, UniProt Q01815); experiment: Inhibition of Cav1.2 calcium current measured using in mouse dorsal root ganglion neuron; format: functional, tissue-based; set-up: temp 20-23 C
[5] = biological target: T1, Voltage-dependent L-type calcium channel subunit alpha-1C; experiment: (§1) Inhibition of Cav1.2 calcium current measured using whole cell patch clamp in guinea pig ventricular myocytes; format: functional, cell-based, Heart, Ventricular myocyte; set-up: ca sol conc 1.8 mM, temp 25-27 C
[6] = biological target: T2, Voltage-dependent L-type calcium channel subunit alpha-1C; experiment: (§2) Inhibition of Cav1.2 calcium current measured using whole cell patch clamp in rat ventricular myocytes; format: functional, cell-based, Heart, Ventricular myocyte; set-up: ca sol conc 2 mM, temp 22-24 C
[7] = biological target: Voltage-dependent L-type calcium channel subunit alpha-1C (Oryctolagus cuniculus, UniProt P15381); experiment: Inhibition of Cav1.2 calcium current measured using whole cell patch clamp in rabbit ventricular myocytes; format: functional, cell-based, Heart, Ventricular myocyte; set-up: ca sol conc 1.8 mM, temp 34 C
[8] = biological target: T2, Voltage-dependent L-type calcium channel subunit alpha-1C; experiment: (§3) Inhibition of Cav1.2 calcium current measured using whole cell patch clamp in rat myocyte; format: functional, Heart, Cardiac Muscle Cell; set-up: ca sol conc 1.2 mM, temp 22 C
[9] = biological target: T2, Voltage-dependent L-type calcium channel subunit alpha-1C; experiment: Inhibition of Cav1.2 calcium current measured using whole cell patch clamp in rat Vascular smooth muscle cells; format: functional, cell-based; set-up: ca sol conc 0 (Barium used instead) mM, temp 22 C
[10] = biological target: T1, Voltage-dependent L-type calcium channel subunit alpha-1C; experiment: Inhibition of Cav1.2 calcium current measured using whole Cell patch clamp in guinea pig ventricular myocytes; format: functional, cell-based, Heart, Ventricular myocyte; set-up: ca sol conc 1.8 mM
[11] = biological target: T2, Voltage-dependent L-type calcium channel subunit alpha-1C; experiment: as §2; format: functional, cell-based, Heart, Ventricular myocyte; set-up: ca sol conc 1.8 mM, temp 22-26 C
[12] = biological target: T1, Voltage-dependent L-type calcium channel subunit alpha-1C; experiment: as §1; format: functional, cell-based, Heart, Ventricular myocyte; set-up: ca sol conc 1.8 mM
[13] = biological target: T1, Voltage-dependent L-type calcium channel subunit alpha-1C; experiment: as §1; format: functional, cell-based, Heart, Ventricular myocyte; set-up: ca sol conc 1.8 mM; remark: listed apart in the source
[14] = biological target: T1, Voltage-dependent L-type calcium channel subunit alpha-1C; experiment: as §1; format: functional, cell-based, Heart, Ventricular myocyte; set-up: ca sol conc 1.8 mM, temp 36 C
[15] = biological target: T2, Voltage-dependent L-type calcium channel subunit alpha-1C; experiment: as §2; format: functional, cell-based, Heart, Ventricular myocyte; set-up: ca sol conc 1 mM, temp 34 C
[16] = biological target: T3, Voltage-dependent L-type calcium channel subunit alpha-1C; experiment: (§4) Inhibition of Cav1.2 calcium current measured using whole cell patch clamp in mouse ventricular myocytes; format: functional, cell-based, Heart, Ventricular myocyte; set-up: ca sol conc 2 mM, temp room
[17] = biological target: T3, Voltage-dependent L-type calcium channel subunit alpha-1C; experiment: as §4; format: functional, cell-based, Heart, Ventricular myocyte; set-up: ca sol conc 2 mM, temp room; remark: listed apart in the source
[18] = biological target: T2, Voltage-dependent L-type calcium channel subunit alpha-1C; experiment: as §2; format: functional, cell-based, Heart, Ventricular myocyte; set-up: ca sol conc 1.8 mM, temp 25 C
[19] = biological target: T2, Voltage-dependent L-type calcium channel subunit alpha-1C; experiment: as §3; format: functional, Heart; set-up: ca sol conc 1.8 mM, temp 20-25 C; settings: cardiac muscle cell
[20] = biological target: Voltage-dependent L-type calcium channel subunit alpha-1C (Homo sapiens, UniProt Q13936); experiment: Inhibition of Cav1.2 calcium current measured using whole cell patch clamp in human atrial myocytes; format: functional, cell-based, Heart, Cardiac Muscle Cell; set-up: ca sol conc 1.8 mM, temp 25 C

T1 sequence (O35505 whole entry): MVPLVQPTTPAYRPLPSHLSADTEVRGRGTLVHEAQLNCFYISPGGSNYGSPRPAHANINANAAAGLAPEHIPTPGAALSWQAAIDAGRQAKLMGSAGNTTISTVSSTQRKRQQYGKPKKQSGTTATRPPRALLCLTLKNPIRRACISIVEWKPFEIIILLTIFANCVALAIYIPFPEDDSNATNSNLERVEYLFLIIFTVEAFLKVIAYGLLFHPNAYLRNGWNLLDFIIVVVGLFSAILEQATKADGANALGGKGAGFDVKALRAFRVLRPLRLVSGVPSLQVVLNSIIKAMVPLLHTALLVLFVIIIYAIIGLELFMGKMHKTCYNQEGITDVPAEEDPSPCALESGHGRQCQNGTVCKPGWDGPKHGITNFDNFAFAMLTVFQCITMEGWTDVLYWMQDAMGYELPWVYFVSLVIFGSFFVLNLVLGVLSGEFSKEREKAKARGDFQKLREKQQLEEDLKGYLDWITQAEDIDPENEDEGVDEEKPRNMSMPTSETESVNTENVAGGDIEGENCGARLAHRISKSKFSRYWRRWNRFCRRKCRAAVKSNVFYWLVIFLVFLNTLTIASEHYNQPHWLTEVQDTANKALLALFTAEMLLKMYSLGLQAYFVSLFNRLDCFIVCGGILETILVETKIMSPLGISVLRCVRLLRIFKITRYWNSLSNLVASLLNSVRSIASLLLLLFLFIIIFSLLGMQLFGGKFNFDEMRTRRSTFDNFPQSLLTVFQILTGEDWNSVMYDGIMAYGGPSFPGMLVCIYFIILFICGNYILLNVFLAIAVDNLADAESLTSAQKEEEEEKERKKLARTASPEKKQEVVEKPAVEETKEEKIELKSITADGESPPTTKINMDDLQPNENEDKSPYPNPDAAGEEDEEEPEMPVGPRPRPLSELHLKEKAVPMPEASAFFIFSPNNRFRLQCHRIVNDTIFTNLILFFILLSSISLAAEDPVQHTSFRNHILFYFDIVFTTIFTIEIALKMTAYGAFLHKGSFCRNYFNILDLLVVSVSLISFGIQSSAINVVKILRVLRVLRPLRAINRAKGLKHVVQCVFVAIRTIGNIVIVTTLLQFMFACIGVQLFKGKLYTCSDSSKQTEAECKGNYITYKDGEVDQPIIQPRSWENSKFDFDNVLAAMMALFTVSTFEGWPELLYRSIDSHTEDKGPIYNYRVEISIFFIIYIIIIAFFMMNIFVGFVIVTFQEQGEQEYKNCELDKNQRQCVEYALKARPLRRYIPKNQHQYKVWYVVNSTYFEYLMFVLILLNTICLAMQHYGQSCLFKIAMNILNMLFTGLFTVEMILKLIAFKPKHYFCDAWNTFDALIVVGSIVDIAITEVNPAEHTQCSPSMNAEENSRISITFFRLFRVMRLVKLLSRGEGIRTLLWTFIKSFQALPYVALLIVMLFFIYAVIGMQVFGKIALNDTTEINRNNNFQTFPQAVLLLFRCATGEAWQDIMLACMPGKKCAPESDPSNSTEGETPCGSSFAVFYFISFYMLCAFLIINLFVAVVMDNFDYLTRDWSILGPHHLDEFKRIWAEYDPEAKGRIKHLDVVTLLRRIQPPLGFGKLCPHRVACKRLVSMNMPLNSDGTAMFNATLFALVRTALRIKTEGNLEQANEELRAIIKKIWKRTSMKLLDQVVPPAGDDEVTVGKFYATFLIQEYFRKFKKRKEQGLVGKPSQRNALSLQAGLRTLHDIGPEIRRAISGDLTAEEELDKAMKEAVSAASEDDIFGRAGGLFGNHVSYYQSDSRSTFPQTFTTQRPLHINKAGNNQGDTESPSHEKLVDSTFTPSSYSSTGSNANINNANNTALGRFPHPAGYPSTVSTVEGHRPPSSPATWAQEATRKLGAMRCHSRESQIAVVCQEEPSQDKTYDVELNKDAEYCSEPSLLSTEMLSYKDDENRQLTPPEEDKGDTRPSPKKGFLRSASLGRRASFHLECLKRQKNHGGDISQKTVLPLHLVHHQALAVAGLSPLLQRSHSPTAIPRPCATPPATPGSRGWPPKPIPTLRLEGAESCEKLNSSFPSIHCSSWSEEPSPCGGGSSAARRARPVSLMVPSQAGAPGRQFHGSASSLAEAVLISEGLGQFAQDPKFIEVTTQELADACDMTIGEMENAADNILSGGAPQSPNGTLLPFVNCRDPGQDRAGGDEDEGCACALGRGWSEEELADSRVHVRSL
T2 sequence (P22002 whole entry): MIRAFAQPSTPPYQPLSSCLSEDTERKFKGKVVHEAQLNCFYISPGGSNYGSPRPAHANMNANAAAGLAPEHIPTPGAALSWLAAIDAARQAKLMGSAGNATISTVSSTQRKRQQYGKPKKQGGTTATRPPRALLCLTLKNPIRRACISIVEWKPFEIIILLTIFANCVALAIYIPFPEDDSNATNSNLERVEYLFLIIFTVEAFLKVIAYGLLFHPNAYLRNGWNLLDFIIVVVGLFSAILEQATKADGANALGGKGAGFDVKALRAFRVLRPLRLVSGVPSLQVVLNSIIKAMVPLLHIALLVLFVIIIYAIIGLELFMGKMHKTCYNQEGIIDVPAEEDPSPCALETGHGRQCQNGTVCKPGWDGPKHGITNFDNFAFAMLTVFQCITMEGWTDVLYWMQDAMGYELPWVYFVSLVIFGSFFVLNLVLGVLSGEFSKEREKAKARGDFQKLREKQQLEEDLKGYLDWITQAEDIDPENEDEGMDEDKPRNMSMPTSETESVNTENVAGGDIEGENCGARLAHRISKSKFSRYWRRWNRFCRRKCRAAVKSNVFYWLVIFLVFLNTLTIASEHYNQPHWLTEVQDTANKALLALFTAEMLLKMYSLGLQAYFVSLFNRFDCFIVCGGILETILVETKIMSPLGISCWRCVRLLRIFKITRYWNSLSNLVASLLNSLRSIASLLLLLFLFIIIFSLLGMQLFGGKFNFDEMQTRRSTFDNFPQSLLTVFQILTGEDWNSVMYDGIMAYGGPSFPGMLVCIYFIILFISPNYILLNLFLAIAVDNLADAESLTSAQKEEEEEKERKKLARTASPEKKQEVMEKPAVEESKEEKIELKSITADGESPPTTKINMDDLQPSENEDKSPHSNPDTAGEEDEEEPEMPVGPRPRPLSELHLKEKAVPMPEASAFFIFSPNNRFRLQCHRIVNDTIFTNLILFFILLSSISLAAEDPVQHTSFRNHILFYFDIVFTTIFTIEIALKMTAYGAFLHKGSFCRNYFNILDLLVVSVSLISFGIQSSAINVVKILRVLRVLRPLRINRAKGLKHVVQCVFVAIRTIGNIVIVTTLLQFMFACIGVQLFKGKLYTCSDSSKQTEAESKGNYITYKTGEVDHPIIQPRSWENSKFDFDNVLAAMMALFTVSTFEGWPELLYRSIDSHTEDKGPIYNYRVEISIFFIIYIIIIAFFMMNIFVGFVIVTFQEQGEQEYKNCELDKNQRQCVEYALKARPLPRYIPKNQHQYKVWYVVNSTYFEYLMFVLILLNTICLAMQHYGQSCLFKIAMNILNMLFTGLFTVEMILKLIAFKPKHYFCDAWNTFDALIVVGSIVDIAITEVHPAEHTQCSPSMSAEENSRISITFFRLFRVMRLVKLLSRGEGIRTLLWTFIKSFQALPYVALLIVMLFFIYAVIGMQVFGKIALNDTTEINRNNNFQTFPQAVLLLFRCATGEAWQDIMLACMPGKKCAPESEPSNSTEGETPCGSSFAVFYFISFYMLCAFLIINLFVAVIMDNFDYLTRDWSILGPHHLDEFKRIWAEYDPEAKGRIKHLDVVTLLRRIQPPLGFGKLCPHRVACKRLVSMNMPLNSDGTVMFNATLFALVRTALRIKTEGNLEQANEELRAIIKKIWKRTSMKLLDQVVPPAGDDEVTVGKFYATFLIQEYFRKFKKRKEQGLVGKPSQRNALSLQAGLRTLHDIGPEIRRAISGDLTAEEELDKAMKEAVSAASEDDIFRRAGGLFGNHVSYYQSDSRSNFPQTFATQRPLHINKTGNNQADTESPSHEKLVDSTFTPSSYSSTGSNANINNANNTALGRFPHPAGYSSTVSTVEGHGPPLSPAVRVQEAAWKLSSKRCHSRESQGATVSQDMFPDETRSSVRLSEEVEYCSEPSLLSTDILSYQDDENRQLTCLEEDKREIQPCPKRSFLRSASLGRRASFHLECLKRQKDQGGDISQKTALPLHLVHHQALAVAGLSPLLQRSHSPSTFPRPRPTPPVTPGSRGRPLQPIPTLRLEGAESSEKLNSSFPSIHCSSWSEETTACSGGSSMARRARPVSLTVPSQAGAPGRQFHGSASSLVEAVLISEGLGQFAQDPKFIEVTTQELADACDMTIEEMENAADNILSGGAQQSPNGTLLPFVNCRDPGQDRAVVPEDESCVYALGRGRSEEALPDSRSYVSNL

Question: With `CN1CCCC(n2nc(Cc3ccc(Cl)cc3)c3ccccc3c2=O)CC1` (stereo not drawn) [AZELASTINE] as the compound, how does the pIC50 [1] read?
Answer: The pIC50 was 5.10.

Question: `O=c1cc(-c2ccccc2)oc2cc(O)c(O)c(O)c12` [BAICALEIN] was tested. Which pIC50 [2] did it give?
Answer: Its pIC50 is 4.07.

Question: With `CC(C)COCC(CN(Cc1ccccc1)c1ccccc1)N1CCCC1` (stereo not drawn) [BEPRIDIL] as the compound, how does the pIC50 [3] read?
Answer: The pIC50 was 5.81.

Question: With `CC(C)(c1ccc(O)cc1)c1ccc(O)cc1` [BISPHENOL A] as the compound, how does the pIC50 [4] read?
Answer: The pIC50 was 4.46.

Question: With `O=C(/C=C/c1ccc(O)c(O)c1)OCCc1ccccc1` [CAFFEIC ACID PHENETHYL ESTER] as the compound, how does the pIC50 [5] read?
Answer: Its pIC50 is 5.96.

Question: How did the pIC50 [6] turn out when `C=C(C)[C@@H]1CCC(C)=C[C@H]1c1c(O)cc(CCCCC)cc1O` [CANNABIDIOL] was run?
Answer: The pIC50 was 7.00.

Question: `COc1ccccc1OCCNCC(O)COc1cccc2[nH]c3ccccc3c12` (stereo not drawn) [CARVEDILOL] was tested. Which pIC50 [7] did it give?
Answer: The pIC50 was 5.44.

Question: How did the pIC50 [8] turn out when `CCC1=C[C@@H]2CN3CCc4c([nH]c5ccccc45)[C@@](C(=O)OC)(C2)[C@@H]13` [CATHARANTHINE BASE] was run?
Answer: The pIC50 was 3.65.

Question: What about the pIC50 [9] of the same compound?
Answer: Its pIC50 is 5.08.

Question: How did the pIC50 [10] turn out when `Cc1ccc(-c2cc(C(F)(F)F)nn2-c2ccc(S(N)(=O)=O)cc2)cc1` [CELECOXIB] was run?
Answer: Its pIC50 is 4.97.

Question: With `Oc1c(CN2CCCC2)cc(Nc2ncnc3ccccc23)cc1CN1CCCC1` [CHANGROLIN] as the compound, how does the pIC50 [11] read?
Answer: The pIC50 was 4.13.

Question: `CN1CCC(=C2c3ccccc3C=Cc3ccccc32)CC1` [CYPROHEPTADINE] was tested. Which pIC50 [12] did it give?
Answer: Its pIC50 is 4.37.

Question: And the pIC50 [13]?
Answer: Its pIC50 is 5.11.

Question: How did the pIC50 [14] turn out when `CCCCc1oc2ccc(NS(C)(=O)=O)cc2c1C(=O)c1ccc(OCCCN(CCCC)CCCC)cc1` [DRONEDARONE] was run?
Answer: The pIC50 was 6.40.

Question: With `COC(=O)CCc1ccc(OCC(O)CNC(C)C)cc1` (stereo not drawn) [ESMOLOL] as the compound, how does the pIC50 [15] read?
Answer: The pIC50 was 3.35.

Question: With `COc1ccc(CCN(C)CCCOc2ccc(S(=O)(=O)c3c(C(C)C)cn4ccccc34)cc2)cc1OC` [FANTOFARONE] as the compound, how does the pIC50 [16] read?
Answer: Its pIC50 is 8.85.

Question: What about the pIC50 [17] of the same compound?
Answer: The pIC50 was 6.82.

Question: How did the pIC50 [18] turn out when `O=C(O)c1ccccc1Nc1ccccc1` [FENAMIC ACID] was run?
Answer: The pIC50 was 3.33.

Question: `CCC(C)c1ccccc1OC(=O)NC` (stereo not drawn) [FENOBUCARB] was tested. Which pIC50 [12] did it give?
Answer: The pIC50 was 3.28.

Question: Which IC50 [19] does the source give for `OC(Cn1cncn1)(Cn1cncn1)c1ccc(F)cc1F` [FLUCONAZOLE] here?
Answer: The IC50 was “inactive at 10uM. Original reference for datapoint is pubmed_id: 22975497”.

Question: With `O=c1c(-c2ccc(O)cc2)coc2cc(O)cc(O)c12` [GENISTEIN] as the compound, how does the pIC50 [2] read?
Answer: The pIC50 was 4.24.

Question: How did the IC50 [19] turn out when `CCC(C)n1ncn(-c2ccc(N3CCN(c4ccc(OCC5COC(Cn6cncn6)(c6ccc(Cl)cc6Cl)O5)cc4)CC3)cc2)c1=O` (stereo not drawn) [ITRACONAZOLE] was run?
Answer: Its IC50 is “inactive at 10uM. Original reference for datapoint is pubmed_id: 22975497”.

Question: `CNC1(c2ccccc2Cl)CCCCC1=O` (stereo not drawn) [KETAMINE] was tested. Which pIC50 [20] did it give?
Answer: Its pIC50 is 5.74.
